Data: patent US10064837B1, “Abietic acid derivatives as anti-tumor agents” (KING SAUD UNIVERSITY, priority 2018, dated 2018)

Tests used:
[1] = system: prostate cancer cell line LNCaP; experiment: Anti-prostate cancer screening, anti-androgenic bioassay (AR transactivation, MMTV-luciferase) in LNCaP cells; type: cell-based, Human; settings: 1 nM DHT, 24 h, mean of three separate experiments
Procedure: (§1) Human prostate cancer cell lines LNCaP and PC-3 were maintained in RPMI 1640 medium and DMEM medium, respectively. Both media were supplemented with penicillin (25 units/mL), streptomycin (25 μg/mL), and 10% fetal calf serum. For the androgen receptor transactivation assay, an androgen-dependent reporter gene transcription test was employed as the primary screening for potential anti-androgen identification. This assay was first performed in LNCaP cells, which express a clinically relevant mutant AR.
(§2) Cells were plated in 24-well tissue culture dishes for 24 hours (PC-3 cells) or 48 hours (LNCaP cells) prior to transfection. Subsequently, LNCaP cells were transfected with a reporter gene, MMTV-luciferase, which contains MMTV-LTR promoter and androgen receptor binding element, and PRL-SV40, which served as an internal control for transfection efficiency. PC-3 cells were transfected with a wild type AR expression plasmid, pSG5AR, in addition to the aforementioned MMTV-luciferase reporter gene and PRL-SV40 internal control. SuperFect (Qiagen, Chatsworth, Calif.) was employed as the transfection reagent following manufacturer's recommendations.
(§3) At the end of a 5-hour transfection period, the medium was changed to DMEM or RPMI 1640 medium, supplemented with 10% charcoal dextran-stripped (that is, androgen-depleted) serum. After 24 h, the cells were treated with 1 nM of DHT and/or test compounds at the designated concentration for another 24 h. The cells were harvested for luciferase activity assay using the Dual Luciferase Assay System (Promega, Madison, Wis.).
The derived data were expressed as relative luciferase activity normalized to the internal luciferase control. Cells cultured in medium containing DHT (androgen), as a positive control, induced a marked reporter gene expression. […] The results are reported in Table 3, and reflected in FIGS. 4 and 5.

[2] = system: prostate cancer cell line PC3; experiment: Anti-prostate cancer screening, anti-androgenic bioassay (wild type AR transactivation, MMTV-luciferase) in PC-3 cells; type: cell-based, Human; settings: PC-3 cells transfected with wild type AR, 1 nM DHT, 24 h, mean of three separate experiments
Procedure: as §1
Wild type AR transactivation assay was performed in PC-3 host cells, which lack an endogenous, functional AR.
as §2, §3
The derived data were expressed as relative luciferase activity normalized to the internal luciferase control. […] The results are reported in Table 3, and reflected in FIGS. 4 and 5.

[3] = molecular target: rat prostate testosterone 5α-reductase; experiment: In vitro 5α-reductase inhibitor enzymatic assay (rat ventral prostate homogenate, [3H]testosterone conversion); type: biochemical; settings: pH 6.5, 37° C., 30 min, mean of three separate experiments
Procedure: A homogenate of the ventral prostate gland of male Sprague-Dawley rats was prepared, and testosterone 5α-reductase inhibition was measured using the methods previously reported in Iwai, A., et al., “Spectrophotometric Method for the Assay of Steroid 5α-reductase activity of rat liver and prostate microsomes”, Analytical Sciences 2013, 29: 455-459. Both the type 1 and the type 2 isozymes are present in the ventral prostate of the rat. In the assay, rat prostate extracts were used in a neutral pH buffer, and both isozymes were assayed.
The ventral prostate glands were excised and minced with a pair of scissors. The 20 w/v % homogenates were prepared with a glass-glass homogenizer in medium A (sucrose 0.32 M, dithiothreitol 0.1 mM, and sodium phosphate 20 mM, pH 6.5). The homogenate was filtered with surgical gauze and then centrifuged at 3000×g for 10 min. The pellets were suspended in medium A at a protein concentration of 20 mg/ml by triturating sequentially through an 18-gauge needle, and then a 20-gauge needle.
To 40 μl of the enzyme suspension, 10 μl of test sample in ethanol or ethanol alone and a mixture containing 0.525 ml of reaction solution consisting of dithiothreitol 1 mM, sodium phosphate 40 mM, pH 6.5, NADPH 5×10^−5 M, and [1,2,6,7^−3H]testosterone 2.2×10^−9 M were added. The assay mixture was incubated at 37° C. for 30 min. The reaction was stopped by the addition of 1 ml of ethyl acetate, and 50 μl of the upper phase was separated on a silica gel plate in the developing solvent system of ethyl acetate/cyclohexane, at a ratio of 1:1. The zones corresponding to the testosterone and 5α-dihydrotestosterone were cut into fragments. Each fragment was added to 5 ml of Aquasol-2 and counted with a liquid scintillation counter to determine ^3H radioactivity.
The inhibitory activity of each test sample was calculated as follows: Rate of enzyme reaction (R,%)=D/(T+D)×100 Inhibitory activity (%)=(1−Rsample/Rcontrol)×100 where D and T are the ^3H radioactivity recovered. The results are reported in Table 1, and reflected in FIG. 2.

[4] = system: 5α-reductase; experiment: In vivo 5α-reductase inhibitor biological assay; design: species or system male Sprague-Dawley rats; settings: rats treated subcutaneously from postnatal third day until seven weeks; mean of three separate experiments

| SMILES | IC50 ([1]; Homo sapiens) [nM] | IC50 ([2]; Homo sapiens) [nM] | IC50 [3] [nM] | ED50 of the 5α-reductase inhibitors activities [4] [nM] | melting point [°C] | IC50 [1] [nM] | IC50 [2] [nM] |
| --- | --- | --- | --- | --- | --- | --- | --- |
| CC(C)C1=CC2=CCC3C(C)(C(=O)Oc4ccccc4)CC(O)CC3(C)C2CC1 (centres unmarked) [Compound 4a, Phenyl-2-hydroxy-abieta-7,13-dien-18-oate] | 3.24 ± 0.04 | 18.2 ± 11 | 0.22 ± 0.03 | 44 ± 0.65 | – | – | – |
| CC(C)C1=CC2=CC3OC(=O)C4(C)CCCC(C)(C2CC1)C34 (centres unmarked) [Compound 3, Abieta-7,13-dien-18-oic acid (18→6) lactone] | 9.08 ± 0.08 | 112 ± 3.7 | 0.91 ± 0.07 | 90 ± 0.88 | 301 to 303 | – | – |
| CC(C)C1=CC2=CC(O)C3C(C)(C(=O)Sc4ccccc4)CCCC3(C)C2CC1 (centres unmarked) [Compound 5b, Phenyl-6-hydroxy-abieta-7,13-dien-18-thioate] | 7.8 ± 0.09 | 83.5 ± 2.3 | 0.88 ± 0.07 | 88 ± 0.89 | – | – | – |
| CC(C)C1=CC2=CCC3C4(C)CC(CC3(C)C2CC1)OC4=O (centres unmarked) [Compound 2, Abieta-7, 13-dien-18-oic acid (18→2) lactone] | 4.22 ± 0.03 | 45.7 ± 1.09 | 0.34 ± 0.06 | 64 ± 0.76 | 227 to 229 | – | – |
| CC(C)(C#N)c1cc(Cn2cncn2)cc(C(C)(C)C#N)c1 [Anastrozole, anastrozole, reference compound] | – | – | 11230 ± 23 | 1090 ± 3.4 | – | – | – |
| CC(C)C1=CC2=CCC3C(C)(C(=O)Sc4ccccc4)CC(O)CC3(C)C2CC1 (centres unmarked) [Compound 4b, Phenyl-2-hydroxy-abieta-7,13-dien-18-thioate] | – | – | 0.29 ± 0.01 | 45 ± 0.57 | – | 3.58 ± 0.02 | 26.4 ± 1.8 |
| CC(C)C1=CC2=CC(O)C3C(C)(C(=O)Oc4ccccc4)CCCC3(C)C2CC1 (centres unmarked) [Compound 5a, Phenyl-6-hydroxy-abieta-7,13-dien-18-oate] | 6.21 ± 0.04 | 71.2 ± 3.6 | 0.74 ± 0.06 | 76 ± 0.89 | – | – | – |
| CC(C)C1=CC2=CC[C@@H]3[C@](C)(CCC[C@@]3(C)C(=O)O)[C@H]2CC1 [Abietic acid] | – | – | 56000 ± 22000 | 8800 ± 87 | – | – | – |
| CC(C)(C)NC(=O)[C@H]1CC[C@H]2[C@@H]3CC[C@H]4NC(=O)C=C[C@]4(C)[C@H]3CC[C@]12C [Finasteride, finasteride, reference compound] | > 100000 | – | 60 ± 1.2 | 170 ± 7.9 | – | – | – |
| CC(C)C1=CC2=CCC3C(C)(C(=O)Nc4ccccc4)CC(O)CC3(C)C2CC1 (centres unmarked) [Compound 4c, Phenyl-2-hydroxy-abieta-7,13-dien-18-carboxamide] | 2.33 ± 0.05 | 11.14 ± 0.09 | 0.19 ± 0.02 | 38 ± 0.45 | – | – | – |
| CC(C)C1=CC2=CC(O)C3C(C)(C(=O)Nc4ccccc4)CCCC3(C)C2CC1 (centres unmarked) [Compound 5c, Phenyl-6-hydroxy-abieta-7,13-dien-18-carboxamide] | 5.78 ± 0.03 | 66.2 ± 2.3 | 0.68 ± 0.08 | 71 ± 0.74 | – | – | – |
